Patent US7635716B2, “Substituted cyclopentanes or cyclopentanones as therapeutic agents” (Allergan, Inc., priority 2005, dated 2009)
pKi: −log10 of the molar value. Where two headings read alike, the source gives them in different places.

Legend:
hEP2 = hEP2 (Homo sapiens, UniProt P43116); assay: Competition binding, [3H]PGE2, HEK 293 cells stably expressing human EP2 receptors; design: expressed in transfected cells; host or cells: HEK 293 cells (membranes or whole cells)
Experimental: Competition binding experiments were performed in a medium containing Hank's balanced salt solution, Hepes 20 mM, pH 7.3, membranes (˜60 μg protein) or 2×10^5 cells from HEK 293 cells stably expressing human EP2 receptors, [^3H]PGE2 (10 nM) and various concentrations of test compounds in a total volume of 300 μL. Reaction mixtures were incubated at 23° C. for 60 min, and were filtered over Whatman GF/B filters under vacuum. Filters were washed three times with 5 ml ice-cold buffer containing 50 mM Tris/HCl (pH 7.3). Non-specific binding was estimated in the presence of excess unlabeled PGE2 (10 μM). Binding data fitted to the binding model for a single class of binding sites, using nonlinear regression analysis. IC50 values thus obtained were converted to Ki using the equation of Ki=(IC50/(1+[L]/KD) where [L] represents PGE2 concentration (10 nM) and KD the dissociation constant for [^3H]PGE2 at human EP2 receptors (40 nM).
(§1) HEK-293 cells stably expressing the human or feline FP receptor, or EP1, EP2, or EP4 receptors were washed with TME buffer, scraped from the bottom of the flasks, and homogenized for 30 sec using a Brinkman PT 10/35 polytron. TME buffer was added to achieve a final 40 ml volume in the centrifuge tubes (the composition of TME is 100 mM TRIS base, 20 mM MgCl2, […]; 10N HCl is added to achieve a pH of 7.4).
(§2) The cell homogenate was centrifuged at 19000 r.p.m. for 20 min at 4° C. using a Beckman Ti-60 rotor. The resultant pellet was resuspended in TME buffer to give a final 1 mg/ml protein concentration, as determined by Biorad assay. Radioligand binding competition assays vs. [^3H—]17 phenyl PGF2. (5 nM) were performed in a 100 μl volume for 60 min. Binding reactions were started by adding plasma membrane fraction. The reaction was terminated by the addition of 4 ml ice-cold TRIS-HCl buffer and rapid filtration through glass fiber GF/B filters using a Brandel cell harvester. The filters were washed 3 times with ice-cold buffer and oven dried for one hour.
(§3) [^3H—] PGE2 (specific activity 180 Ci mmol) was used as the radioligand for EP receptors. [^3H] 17-phenyl PGF2α was employed for FP receptor binding studies. Binding studies employing EP1, EP2, EP4 and FP receptors were performed in duplicate in at least three separate experiments. A 200 μl assay volume was used. Incubations were for 60 min at 25° C. and were terminated by the addition of 4 ml of ice-cold 50 mM TRIS-HCl, followed by rapid filtration through Whatman GF/B filters and three additional 4 ml washes in a cell harvester (Brandel). Competition studies were performed using a final concentration of 5 nM [^3H]-PGE2, or 5 nM [^3H] 17-phenyl PGF2α and non-specific binding determined with 10^−5M of unlabeled PGE2, or 17-phenyl PGF2α, according to receptor subtype studied.

hEP4 = target: T1, hEP4 (Homo sapiens, UniProt P35408); assay: Radioligand binding, [3H]PGE2, HEK-293 cells stably expressing EP4 receptors
T1 construct: expressed in transfected cells; host or cells: HEK-293 cells (plasma membrane fraction)
T1 sequence (P35408 whole entry): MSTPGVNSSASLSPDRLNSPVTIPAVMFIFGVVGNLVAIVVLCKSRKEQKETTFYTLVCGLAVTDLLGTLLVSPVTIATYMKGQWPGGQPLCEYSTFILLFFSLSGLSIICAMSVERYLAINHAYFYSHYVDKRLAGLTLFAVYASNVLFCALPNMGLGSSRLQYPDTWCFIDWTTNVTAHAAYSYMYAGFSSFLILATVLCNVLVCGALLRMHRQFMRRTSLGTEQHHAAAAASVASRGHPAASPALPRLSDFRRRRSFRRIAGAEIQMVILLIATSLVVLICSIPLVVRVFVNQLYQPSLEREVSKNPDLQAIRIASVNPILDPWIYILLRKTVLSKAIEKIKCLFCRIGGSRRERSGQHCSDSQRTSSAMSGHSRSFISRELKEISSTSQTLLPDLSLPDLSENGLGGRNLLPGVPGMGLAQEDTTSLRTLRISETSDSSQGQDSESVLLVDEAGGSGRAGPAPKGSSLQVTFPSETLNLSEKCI
Experimental: as §1, §2
as §3, with “Binding studies employing EP1, EP2, EP4 and FP receptors were performed in duplicate in at least three separate experiments.” left out

[1] = Table 1, first part, triplicate, read-out: binding data (Ki) hEP2
[2] = Table 1, first part, triplicate, read-out: binding data (Ki) hEP4
[3] = Table 1, second part, read-out: hEP4 Ki
[4] = Table 1, second part, read-out: hEP2 Ki

Sequence of hEP2 (P43116 whole entry): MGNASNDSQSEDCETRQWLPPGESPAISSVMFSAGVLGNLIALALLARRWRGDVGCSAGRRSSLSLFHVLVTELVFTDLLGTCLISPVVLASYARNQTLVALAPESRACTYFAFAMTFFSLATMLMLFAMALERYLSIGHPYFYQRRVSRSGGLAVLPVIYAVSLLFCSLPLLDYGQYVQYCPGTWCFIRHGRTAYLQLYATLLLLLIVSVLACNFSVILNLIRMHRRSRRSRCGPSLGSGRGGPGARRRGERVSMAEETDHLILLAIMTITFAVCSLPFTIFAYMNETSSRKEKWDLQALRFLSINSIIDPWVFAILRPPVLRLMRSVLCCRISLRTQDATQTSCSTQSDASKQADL

Molecule | pKi (hEP2; [1]) | pKi (hEP4; [2]) | pKi (hEP4; [3]) | pKi (hEP2; [4])
O=C(O)CCCCCC[C@H]1C(=O)CC[C@@H]1COc1ccccc1 [Example 6, 7-((1R,5S)-2-Oxo-5-phenoxymethyl-cyclopentyl)-heptanoic acid] | 5.20 | 5.58 | – | –
O=C(O)CCC/C=C\C[C@@H]1[C@@H](COc2ccccc2)[C@H](O)C[C@H]1Cl [Example 8, (Z)-7-((1R,2S,3R,5R)-5-Chloro-3-hydroxy-2-phenoxymethyl-cyclopentyl)-hept-5-enoic acid] | 5.90 | < 5.00 | < 5.00 | –
O=C(O)CCCCCC[C@@H]1[C@@H](COc2ccccc2)[C@H](O)C[C@H]1Cl [Example 10, 7-((1R,2S,3R,5R)-5-Chloro-3-hydroxy-2-phenoxymethyl-cyclopentyl)-heptanoic acid] | 5.77 | < 5.00 | < 5.00 | –
O=C(O)CCC/C=C\C[C@@H]1[C@@H](COc2cc(Cl)cc(Cl)c2)[C@H](O)C[C@H]1Cl [Example 12, (Z)-7-[(1R,2S,3R,5R)-5-Chloro-2-(3,5-dichloro-phenoxymethyl)-3-hydroxy-cyclopentyl]-hept-5-enoic acid] | 7.92 | 6.03 | 6.03 | 7.92
O=C(O)CCCCCC[C@@H]1[C@@H](COc2cc(Cl)cc(Cl)c2)[C@H](O)C[C@H]1Cl [Example 14, 7-[(1R,2S,3R,5R)-5-Chloro-2-(3,5-dichloro-phenoxymethyl)-3-hydroxy-cyclopentyl]-heptanoic acid] | 7.12 | 5.52 | – | –
(Z)-7-((1R,2S,3R)-3-Hydroxy-5-oxo-2-phenoxymethyl-cyclopentyl)-hept-5-enoic acid [Example 4] | 4.87 | < 5.00 | < 5.00 | < 5.00
(Z)-7-((1R,5S)-2-Oxo-5-phenoxymethyl-cyclopent-3-enyl)-hept-5-enoic acid [Example 3] | < 5.00 | < 5.00 | < 5.00 | 4.87
